ChEMBL document CHEMBL2406977, “The discovery of PLK4 inhibitors: (E)-3-((1H-Indazol-6-yl)methylene)indolin-2-ones as novel antiproliferative agents” (J Med Chem, 2013)

Columns and labels:
Cytochrome P450 2C19 = Cytochrome P450 2C19 (Homo sapiens, UniProt P33261); assay: Inhibition of CYP2C19 (unknown origin) using MFC as substrate after 30 mins by fluorescence assay; assay type: ADME
Cytochrome P450 2D6 = Cytochrome P450 2D6 (Homo sapiens, UniProt P10635); assay: Inhibition of CYP2D6 (unknown origin) using AMMC as substrate after 30 mins by fluorescence assay; assay type: ADME
Cytochrome P450 2D6, sequence (P10635 whole entry): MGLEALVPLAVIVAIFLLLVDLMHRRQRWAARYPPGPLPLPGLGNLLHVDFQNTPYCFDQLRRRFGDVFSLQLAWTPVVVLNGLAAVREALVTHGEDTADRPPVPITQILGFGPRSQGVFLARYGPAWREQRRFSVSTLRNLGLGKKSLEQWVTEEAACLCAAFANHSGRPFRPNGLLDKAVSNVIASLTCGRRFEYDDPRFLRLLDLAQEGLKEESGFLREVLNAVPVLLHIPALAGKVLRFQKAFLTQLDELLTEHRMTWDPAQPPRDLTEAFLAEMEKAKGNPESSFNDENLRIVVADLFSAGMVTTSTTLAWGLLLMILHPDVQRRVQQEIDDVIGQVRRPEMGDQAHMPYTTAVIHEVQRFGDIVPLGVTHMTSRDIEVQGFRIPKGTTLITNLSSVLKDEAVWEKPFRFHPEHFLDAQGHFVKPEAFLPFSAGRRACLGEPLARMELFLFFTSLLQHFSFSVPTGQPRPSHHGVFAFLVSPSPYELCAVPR

MDA-MB-231 = assay: Antiproliferative activity against human MDA-MB-231 cells assessed as growth inhibition after 5 days by SRB assay; assay type: functional; details: MDA-MB-231, 120 h
SK-BR-3 = assay: Antiproliferative activity against human SKBR3 cells assessed as growth inhibition after 5 days by SRB assay; assay type: functional; details: SK-BR-3, 120 h
MCF7 = assay: Antiproliferative activity against human MCF7 cells assessed as growth inhibition after 5 days by SRB assay; assay type: functional; details: MCF7, 120 h
[1] = target: Serine/threonine-protein kinase PLK2 (Homo sapiens, UniProt Q9NYY3); assay: Inhibition of PLK2 (unknown origin) by FRET-based homogeneous assay
Serine/threonine-protein kinase PLK2, sequence (Q9NYY3 whole entry, the tested form may be a part): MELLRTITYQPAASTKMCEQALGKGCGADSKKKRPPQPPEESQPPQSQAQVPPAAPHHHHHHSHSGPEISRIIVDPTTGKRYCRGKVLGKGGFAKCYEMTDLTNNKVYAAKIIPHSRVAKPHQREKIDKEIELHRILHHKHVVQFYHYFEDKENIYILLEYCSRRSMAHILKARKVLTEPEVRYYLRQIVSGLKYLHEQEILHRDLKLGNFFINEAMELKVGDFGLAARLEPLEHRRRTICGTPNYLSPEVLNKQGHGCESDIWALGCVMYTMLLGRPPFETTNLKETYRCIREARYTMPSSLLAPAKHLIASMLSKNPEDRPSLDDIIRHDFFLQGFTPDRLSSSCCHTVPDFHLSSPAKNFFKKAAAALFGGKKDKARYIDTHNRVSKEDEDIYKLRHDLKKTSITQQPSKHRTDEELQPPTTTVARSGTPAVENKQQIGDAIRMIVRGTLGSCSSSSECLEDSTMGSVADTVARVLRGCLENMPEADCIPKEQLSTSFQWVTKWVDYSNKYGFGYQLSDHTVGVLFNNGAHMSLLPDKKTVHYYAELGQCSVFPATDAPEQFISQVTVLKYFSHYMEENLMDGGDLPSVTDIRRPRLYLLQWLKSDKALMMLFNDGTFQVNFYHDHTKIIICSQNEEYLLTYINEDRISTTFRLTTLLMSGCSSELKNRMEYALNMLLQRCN

[2] = target: T1, Serine/threonine-protein kinase PLK4 (Homo sapiens, UniProt O00444); assay: Inhibition of N-terminal GST-tagged human PLK4 (1 to 391 amino acids) expressed in Escherichia coli using TMB as substrate after 30 mins by indirect ELISA assay
T1 sequence (O00444 whole entry): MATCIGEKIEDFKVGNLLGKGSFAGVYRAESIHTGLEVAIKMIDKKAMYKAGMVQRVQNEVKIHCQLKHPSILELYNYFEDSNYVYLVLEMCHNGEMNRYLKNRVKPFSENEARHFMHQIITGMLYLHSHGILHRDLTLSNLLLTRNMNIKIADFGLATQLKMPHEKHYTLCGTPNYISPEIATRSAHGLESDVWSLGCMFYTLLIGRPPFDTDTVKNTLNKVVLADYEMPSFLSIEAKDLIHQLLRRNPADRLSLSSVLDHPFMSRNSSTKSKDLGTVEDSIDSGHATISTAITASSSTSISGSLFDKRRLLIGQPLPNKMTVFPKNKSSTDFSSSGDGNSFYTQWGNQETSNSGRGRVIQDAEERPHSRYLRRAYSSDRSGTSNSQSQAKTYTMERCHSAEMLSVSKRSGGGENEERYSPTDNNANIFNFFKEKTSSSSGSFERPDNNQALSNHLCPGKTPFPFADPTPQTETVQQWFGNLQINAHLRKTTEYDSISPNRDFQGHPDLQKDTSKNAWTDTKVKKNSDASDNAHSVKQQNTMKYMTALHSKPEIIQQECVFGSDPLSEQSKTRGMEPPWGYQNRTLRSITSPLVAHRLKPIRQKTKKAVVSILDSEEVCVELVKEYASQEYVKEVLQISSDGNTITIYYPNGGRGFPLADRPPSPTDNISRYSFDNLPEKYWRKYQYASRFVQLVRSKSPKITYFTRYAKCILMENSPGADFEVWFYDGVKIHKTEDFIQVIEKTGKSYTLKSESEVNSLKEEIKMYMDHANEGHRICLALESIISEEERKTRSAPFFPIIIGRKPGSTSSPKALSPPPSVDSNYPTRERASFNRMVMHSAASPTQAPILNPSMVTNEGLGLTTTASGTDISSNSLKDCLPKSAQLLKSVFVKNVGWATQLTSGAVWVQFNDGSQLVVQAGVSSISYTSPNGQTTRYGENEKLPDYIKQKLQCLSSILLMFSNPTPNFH

Cytochrome P450 2C19, sequence (P33261 whole entry): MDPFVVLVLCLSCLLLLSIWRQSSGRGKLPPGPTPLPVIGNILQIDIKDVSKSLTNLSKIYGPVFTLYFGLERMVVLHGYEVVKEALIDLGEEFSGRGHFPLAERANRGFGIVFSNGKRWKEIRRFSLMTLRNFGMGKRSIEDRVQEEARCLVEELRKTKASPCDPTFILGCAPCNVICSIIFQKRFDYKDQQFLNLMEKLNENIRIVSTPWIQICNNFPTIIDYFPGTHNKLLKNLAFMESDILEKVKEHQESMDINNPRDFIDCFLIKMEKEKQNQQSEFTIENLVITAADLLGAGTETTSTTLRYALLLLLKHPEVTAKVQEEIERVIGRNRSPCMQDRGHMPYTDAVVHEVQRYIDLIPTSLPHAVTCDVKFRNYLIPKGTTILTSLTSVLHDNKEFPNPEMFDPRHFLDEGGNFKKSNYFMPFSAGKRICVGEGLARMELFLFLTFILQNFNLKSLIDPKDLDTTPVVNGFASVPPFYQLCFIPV

IC50 (Cytochrome P450 2C19): 1.6 µM
IC50 (Cytochrome P450 2D6): > 10 µM
GI50 (MDA-MB-231): < 0.01 µM
GI50 (SK-BR-3): 2.3 µM
GI50 (MCF7): 0.01 µM
IC50 [1]: > 10 µM
IC50 [2]: 0.00061 µM
Structure (SMILES): COc1ccc2c(c1)/C(=C\c1ccc3c(/C=C/c4ccc(N5CCN(C)CC5)nc4)n[nH]c3c1)C(=O)N2
